The record followed here is patent US11634396B2 (priority 2021, dated 2023).

Read-outs that look alike come from different tables or passages of the source.

One assay addresses kOR (OPRK1) (Homo sapiens (Human), UniProt P41145). Description: KOR β-Arrestin antagonist assay (Tango OPRK1-bla U2OS cells). It is filed as cell-based. An excerpt:
KOR β-Arrestin Agonist and Antagonist assays were preformed using the Tango™ OPRK1-bla U2OS cells from Invitrogen and purchased from ThermoFisher, catalog number K1576.

Another assay has as its target human mOR (Homo sapiens (Human), UniProt P35372). Description: cell-based.
For a further assay, the target named is human dOR (Homo sapiens (Human), UniProt P41143). Description: cell-based. Particulars: dOR cAMP Agonist Assay EC50, CHO Tag-lite human dOR stable cell line; forskolin.
human dOR, sequence (P41143 whole entry): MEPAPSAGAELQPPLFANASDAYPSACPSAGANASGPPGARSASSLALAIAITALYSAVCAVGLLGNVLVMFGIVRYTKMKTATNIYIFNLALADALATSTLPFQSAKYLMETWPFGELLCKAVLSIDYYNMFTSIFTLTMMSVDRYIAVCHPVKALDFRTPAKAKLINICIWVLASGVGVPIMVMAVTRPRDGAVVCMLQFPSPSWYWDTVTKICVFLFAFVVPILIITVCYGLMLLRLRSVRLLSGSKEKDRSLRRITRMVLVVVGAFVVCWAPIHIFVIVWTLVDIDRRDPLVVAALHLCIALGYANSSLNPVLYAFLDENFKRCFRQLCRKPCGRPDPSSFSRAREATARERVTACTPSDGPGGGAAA

kOR (OPRK1), sequence (P41145 whole entry): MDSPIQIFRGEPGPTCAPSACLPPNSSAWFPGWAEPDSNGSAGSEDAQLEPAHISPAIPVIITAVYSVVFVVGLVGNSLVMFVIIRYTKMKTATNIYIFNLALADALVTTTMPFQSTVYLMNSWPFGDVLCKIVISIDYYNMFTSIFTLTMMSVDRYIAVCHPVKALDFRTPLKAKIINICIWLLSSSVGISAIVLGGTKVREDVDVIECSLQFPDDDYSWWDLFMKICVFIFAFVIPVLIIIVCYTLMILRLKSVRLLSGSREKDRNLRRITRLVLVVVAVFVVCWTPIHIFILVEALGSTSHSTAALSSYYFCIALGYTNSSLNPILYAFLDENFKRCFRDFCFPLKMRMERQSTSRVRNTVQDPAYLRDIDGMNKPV
human mOR, sequence (P35372 whole entry): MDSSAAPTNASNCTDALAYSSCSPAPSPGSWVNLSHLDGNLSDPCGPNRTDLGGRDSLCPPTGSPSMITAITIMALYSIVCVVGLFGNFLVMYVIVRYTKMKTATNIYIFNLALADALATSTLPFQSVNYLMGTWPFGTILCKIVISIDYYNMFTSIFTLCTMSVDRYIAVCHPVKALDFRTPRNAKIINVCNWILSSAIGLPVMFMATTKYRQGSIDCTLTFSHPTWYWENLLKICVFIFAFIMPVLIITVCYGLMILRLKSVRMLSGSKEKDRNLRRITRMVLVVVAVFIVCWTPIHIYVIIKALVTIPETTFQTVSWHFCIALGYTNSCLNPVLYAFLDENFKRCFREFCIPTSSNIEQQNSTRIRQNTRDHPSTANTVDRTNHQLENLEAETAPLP

Usually IC50 stands for the concentration that gives 50% inhibition. The term EC50 denotes the concentration giving half of the maximal effect. `CN(C)[C@H](CNC(=O)C[C@@H](c1ccccc1)C1CC1)Cc1ccc(O)cc1` [Compound 318, (R)-3-cyclopropyl-N-((S)-2-(dimethylamino)-3-(4-hydroxyphenyl)propyl)-3-phenylpropanamide]: the IC50 against kOR (OPRK1) and at human mOR was less than 300 nM each time. Also, the 50% effective concentration (EC50) on human dOR was less than 300 nM.
As to `CN(C)[C@H](CNC(=O)C[C@H](c1ccccc1)C1CC1)Cc1ccc(O)cc1` [Compound 319, (S)-3-cyclopropyl-N-((S)-2-(dimethylamino)-3-(4-hydroxyphenyl)propyl)-3-phenylpropanamide], the IC50 at kOR (OPRK1) is less than 300 nM; on human mOR (CHO Tag-lite human mOR stable cell line, forskolin 4 μM and DAMGO at EC90, read-out: mOR cAMP Antagonist Assay IC50), greater than 3000 nM. Further, the EC50 at human dOR was less than 300 nM.
